Test results as given in patent publication US7498403B2, “Peptides capable of binding to titanium silver silicone” (Japan Science and Technology Agency, priority 2003, dated 2009).

Tests used:
[1] = Binding ability of phage clones to titanium particles (eluted phage titer / added phage titer); conditions: peptide expressed on phage clone; for binding ability to titanium: titanium particles, mutants compared with SEQ ID NO: 3 clone
Method: 10 mg of titanium particle with a particle diameter of […] (Sumitomo Titanium Corporation, Hyogo) was put into a 1.5 ml-Eppendorf tube, and washed twice with a solution of 500 μl of 50 mM tris (hydroxymethyl) aminomethane (herein after referred to as tris (Kishida Chemical (Osaka)) HCl buffer pH 7.5; 150 mM of sodium chloride (Wako Pure Chemicals, Osaka) solution (herein after referred to as TBS) supplemented with 0.1% bovine serum albumin (herein after referred to as BSA), 0.1% Polyoxyethylenesorbitan monolaurate (herein after referred as Tween-20 (Sigma, St. Louis)). Washing of titanium particles was performed by centrifuging with a desktop centrifuge H1300 (Kokusan) at 13,000 rpm, 5 sec, to precipitate titanium particles and to remove supernatant. After washing, in order to block the non-specific adsorption of the phage, the mixture was stirred by rotating with 1 ml of the same solution for 30 min at room temperature by using a rotary shaker rotator RT-50 (Taitec).
By centrifuging with a desktop centrifuge H1300 (Kokusan) at 13,000 rpm, 5 sec, titanium particles were precipitated, the supernatant was removed, and then 1 ml TBS containing peptide-expressing phage library, D12 library expressing linear random peptide of 12 residues (New England Biolabs, Beverly), 17×10^11 plaque-forming unit (herein after referred to as pfu), or C7C library expressing cyclic randam peptide of 7 residues (New Engand Biolabs) 2.0×10^11 pfu, 0.1% BSA and 0.1% Tween-20 solution were added, and stirred by rotating for 2 hours, at room temperature with a rotary shaker, rotator RT-50.
By centrifuging with a desktop centrifuge H1300 (Kokusan) at 13,000 rpm, 5 sec, the supernatant was removed, and the resultant was washed 10 times with 1 ml of TBS, 0.1% Tween-20 solution. Washing was performed by centrifuging at 8000×g, 5 sec, by precipitating titanium particles. After removing washing solution, 1 ml of 0.2 M glycine (Wako Pure Chemicals), HCl buffer pH 2.2 were added and stirred by rotating for 10 min at room temperature with rotator RT-50 (Taitec) to elute phage bound to titanium. Titanium was precipitated by centrifugation, and the supernatant was moved to a separate 1.5 ml-Eppendorf tube. Then, 150 μl of 1M tris/HCl buffer pH 9.1 was added to neutralize, and phage titer in the solution (plaque forming ability per unit solution) was measured according to a common procedure (Molecular Cloning Third Edition, Cold Spring Harbor Laboratory Press).
(§1) By using the phage clone obtained in Example 1, the binding ability to titanium was evaluated by the following experiment. The same method as for panning operation shown in Example 1 was performed. The difference between Example 1 is that the stirring time of titanium and phage clone was 1 hour; the Tween 20 concentration and BSA concentration in each solution was 0.5%, and 1%, respectively, and that the titer of the phage added was 10^9 pfu for clone from D12, and 10^11 pfu for clone from C7C.
For clone strongly bound particularly with titanium (SEQ ID NO: 3) in Example 2, point mutants substituted by alanine having only one methyl group in the side chain was prepared and the change of binding ability to titanium was examined for each mutant phage. As point mutant comprises alanine in the 6th position in the expressed sequence, mutants were prepared for all the residues except the 6th residue. The preparation of point mutants was performed by Kunkel method (Molecular Cloning Third Edition, Cold Spring Harbor Laboratory Press). Synthetic DNAs used for preparing point mutants are shown in FIG. 8 (SEQ ID NOs: 40 to 50). The introduction of point mutation was confirmed by determining the DNA sequence of phage DNA. DNA sequencing was performed in the same manner as Example 1. The binding ability to titanium of the obtained point mutants was measured by the method shown in Example 2, by adjusting the phage amount added to 10^10 pfu.
The deletion mutants were prepared by the method shown schematically in FIG. 10. […]

[2] = Binding ability of phage clone to copper particles; conditions: peptide expressed on phage clone
Method: as §1
(§2) To investigate the binding specificity of phage clone expressing a peptide comprising an amino acid sequence shown in SEQ ID NO: 3 to metal material, to 10 mg each of gold (purity>99.9%, particle diameter<150 μm)/silver (purity>99.9%, particle diameter<75 μm)/copper (purity>99%, particle diameter 75-150 μm)/platinum (purity>99.9%, particle diameter<75 μm)/iron (purity>99.9%, particle diameter<150 μm)/tin (purity>99.9%, particle diameter<150 μm)/zinc (purity>99.9%, particle diameter<150 μm)/chrome (purity>98%, particle diameter>10 μm)/cobalt (purity>99%, particle diameter<75 μm)/silicon (purity>99%, particle diameter<150 μm) (Kojundo Chemical Lab., Saitama), the binding ability to each metal was examined by the same method of Example 2, by using 10^10 pfu/ml of phage clone expressing a peptide comprising an amino acid sequence shown in SEQ ID NO: 3.

[3] = Binding ability of phage clone to iron particles; conditions: peptide expressed on phage clone
Method: as §1, §2

[4] = Adsorption of synthetic peptide to titanium particles, Langmuir adsorption isotherm fitting; type: binding; conditions: Ti
Method: (§3) In order to confirm whether the synthetic peptide comprising an amino acid sequence shown in SEQ ID NO: 3 binds to titanium surface, the binding ability of the synthetic peptides comprising an amino acid sequence shown in SEQ ID NO: 3 to titanium particles was examined. 10 mg of titanium particles used in Example 1 was put into an Eppendorf tube, washed twice with 50 mM HEPES-NaOH, 150 mM NaCl. Then, 100 μl of 5 to 40 μM of the synthetic peptides of SEQ ID NO: 3, and the mixture was stirred by rotating by using a rotary shaker rotator RT-50 (Taitec) at room temperature for 2 hours. By centrifuging with a desk-top centrifuge H-1300 (Kokusan, Tokyo), at 13,000 rpm, for 5 sec., the supernatant was removed, mixed with fluoro aldehyde (Pias Rockford, Ill.), and by using a spectrofluorometer (Nippon Bunko, Tokyo), at excitation wave length 342 nm, fluorescent wave length 437 nm, the binding level to titanium was calculated from the peptide concentration of the supernatant. The relative surface area of titanium was calculated from the density and mean particle diameter. Further, the binding ability of the synthetic peptide comprising an amino acid sequence shown in SEQ ID NO: 2 to silicone/tin used in Example 13 was examined by the same method. […]

[5] = QCM-D300 quartz crystal microbalance analysis of phage binding to titanium sensor; conditions: phage clone; frequency and dissipation (viscoelasticity), sensor blocked with BSA
Method: As for the clone strongly bound particularly with titanium (expressing peptide of SEQ ID NO: 3), the binding form of titanium surface and phage was examined, by measuring with QCM-D300 (Q-sense AB, Goeteborg), which is a device for quantification of interaction with a quartz crystal microbalance.
For a quartz crystal microbalance, titanium sensor being a genuine part of QCM-D300 was used. The temperature was fixed at 24.99° C., and the actual measurement value was from around 24.68° C. to 24.70° C. It was measured in a condition of blocking the sensor with BSA, and in a condition without blocking. When blocking with BSA is not performed, after measuring the standard value with TBS, the phage solution adjusted so that the phage titer becomes 10^10 pfu/ml was measured continuously. When blocking with BSA is performed, after measuring the standard value with TBS, blocking was conducted by incubating for about 10 min with TBS, 0.1% BSA, and after washing again migrated BSA with TBS, the phage solution adjusted so that the phage titer becomes 10^11 pfu/ml was measured continuously.
From the results shown in FIG. 6, it is clear that the phage clone is bound to the sensor from the change of frequency, under the absence of BSA. […]

[6] = Binding ability of phage clones to silver particles; conditions: peptide expressed on phage clone
Method: as §1, §2
(§4) In order to confirm whether the binding form to silver or silicone, and the sequence specificity of the phage clone expressing a peptide comprising an amino acid sequence shown in SEQ ID NO: 3 is similar as in the case of binding to titanium, the binding ability of the alanine substituted-mutant phage of SEQ ID NOs: 4, 5, 7, 8 used in Example 4 to silver/silicon was examined by the method shown in Example 2.

[7] = Binding ability of phage clones to silicon particles; conditions: peptide expressed on phage clone
Method: as §1, §2, §4

[8] = Adsorption of synthetic peptide to silicon particles, Langmuir adsorption isotherm fitting; type: binding; conditions: Si
Method: as §3

| Substance | binding ability to titanium [1] | binding ability to silver [6] | binding ability to silicon [7] | other results |
| --- | --- | --- | --- | --- |
| RKLPDAPGMHTW [SEQ ID NO: 3, tested on phage clone and as synthetic peptide] | much higher | – | – | binding ability to titanium treated with hydrogen peroxide ([1]; titanium particles treated with 3% hydrogen peroxide for 1 hour): increased; binding to copper [2]: below the detection limit; binding to iron [3]: below the detection limit; Kd ([4]; synthetic peptide 5 to 40 μM, 50 mM HEPES-NaOH, 150 mM NaCl, room temperature, 2 hours, read-out: Kd (dissociation constant)): 11.1 ± 2.8 µM; qm (maximum adsorption level) ([4]; synthetic peptide, Langmuir fitting): 2.5 ± 0.3 × 10^−6 mole/m^2; binding form of phage to titanium surface [5]: bound perpendicularly to titanium surface |
| SEQ ID NO: 7: e3-2-3 mutant, 4th amino acid residue substituted by Ala (RKLADAPGMHTW) | the most significantly impaired | same trend as for titanium | same trend as for titanium | – |
| SEQ ID NO: 15: Ala is added/inserted to N terminal of e-3-2-3 (ARKLPDAPGMHTW) | increase of the binding ability | – | – | – |
| SEQ ID NO: 8: e3-2-3 mutant, 5th amino acid residue substituted by Ala (RKLPAAPGMHTW) | significantly impaired | same trend as for titanium | same trend as for titanium | – |
| SEQ ID NO: 4: e3-2-3 mutant, 1st amino acid residue substituted by Ala (AKLPDAPGMHTW) | significantly impaired | same trend as for titanium | same trend as for titanium | – |
| RKLPDA [SEQ ID NO: 1] | not affected by the deletion | – | – | – |
| RALPDA [SEQ ID NO: 2] | binds | binds | binds | qm (maximum adsorption level) [8]: 2.1 ± 0.3 × 10^−7 mole/m^2; Kd ([8]; read-out: Kd (dissociation constant)): 13.2 ± 4 µM |
| SEQ ID NO: 5: e3-2-3 mutant, 2nd amino acid residue substituted by Ala (RALPDAPGMHTW) | increased | same trend as for titanium | same trend as for titanium | – |
